This note sets out measurements from ChEMBL document CHEMBL1201862, “PubChem BioAssay data set” (2004).

Test systems include A549; COLO 205; HCT-15; K562; KM12; M14; MCF7; MDA-MB-435; Malme-3M; NCI-H226; NCI/ADR-RES; OVCAR-5; OVCAR-8; SK-MEL-5; SN12C; TK-10; U-251; HOP-92; T47D.
Holding throughout (test): inhibition of tumour cell growth, NCI panel, 48 h

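Five concentrations, 48 hours, 96-well plates. Here, GI50 denotes the concentration required for 50% inhibition of growth.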 The source made the active and inactive calls. Rule as the data show it: active = GI50 up to about 1.1 µM and inactive = higher. Where only a bound is given, the exact number is not on record here.

Consider `COC1(OC)CCCc2c1no[n+]2[O-]`, for which the GI50 with A549 is > 100 µM (inactive); in the assay with COLO 205 it was > 100 µM (inactive); in the assay with HCT-15 it was greater than 100 µM; with K562, > 100 µM (inactive); in the assay on KM12, > 100 µM (inactive); in the assay with M14, > 100 µM (inactive). Further, the GI50 in the assay with MCF7, in the assay on MDA-MB-435, in the assay with Malme-3M, in the assay on NCI-H226, with NCI/ADR-RES and in the assay on OVCAR-5 was > 100 µM (inactive) throughout. Also, the GI50 with OVCAR-8, in the assay with SK-MEL-5, with SN12C, in the assay on TK-10 and in the assay on U-251 was > 100 µM (inactive) throughout.

As to `Cc1c(C#N)c(N)n(C2OC(CO)C(O)C(O)C2O)c(=S)c1C#N` (centres undefined), the GI50 in the assay on A549 is > 100 µM (inactive); with HCT-15, greater than 100 µM; in the assay on HOP-92, > 100 µM (inactive); in the assay on K562, > 100 µM (inactive); with KM12, > 100 µM (inactive); with M14 it was > 100 µM (inactive). The GI50 in the assay on MCF7, in the assay with Malme-3M, in the assay on NCI-H226, in the assay with OVCAR-5, in the assay on OVCAR-8 and in the assay on SK-MEL-5 was > 100 µM (inactive) throughout. In addition, the GI50 in the assay on SN12C, in the assay on TK-10 and in the assay on U-251 was > 100 µM (inactive) in each case.

Consider `CCCCCC(C/C=N/N(C)C)C(O)(C(F)(F)F)C(F)(F)F` (centres undefined), for which the GI50 is 37.2 µM (inactive) with A549; 16.3 µM (inactive) in the assay on COLO 205; 49.8 µM in the assay with HCT-15; 33 µM (inactive) in the assay on HOP-92; 22.5 µM (inactive) in the assay on K562; 36.3 µM (inactive) with KM12. The GI50 was 38.7 µM (inactive) in the assay on M14; 31 µM (inactive) in the assay on MDA-MB-435; 25.4 µM (inactive) with Malme-3M; 41.5 µM (inactive) in the assay with NCI-H226; > 100 µM (inactive) with NCI/ADR-RES; 65.6 µM (inactive) in the assay with OVCAR-5. Further, the GI50 with OVCAR-8 was 41.5 µM (inactive); with SK-MEL-5, 16.6 µM (inactive); with SN12C, 28.2 µM (inactive); in the assay on T47D, 25.9 µM (inactive); with TK-10 it was 54.2 µM (inactive); with U-251, 25.4 µM (inactive).

As to `C=CCNC(=O)NCCCC(NC(C)=O)C(=O)NCc1ccccc1` (centres undefined), the GI50 in the assay with A549 was > 100 µM (inactive); in the assay with COLO 205, > 100 µM (inactive); in the assay on HCT-15, greater than 100 µM; in the assay with HOP-92, > 100 µM (inactive); in the assay with K562 it was > 100 µM (inactive); in the assay on KM12 it was > 100 µM (inactive). The GI50 in the assay with M14, in the assay on Malme-3M, in the assay on NCI-H226, with OVCAR-5, in the assay on OVCAR-8 and in the assay with SK-MEL-5 was > 100 µM (inactive) each time. In addition, the GI50 in the assay with SN12C, in the assay on TK-10 and in the assay on U-251 was > 100 µM (inactive) each time.

With `C[C@@H]1[C@@H]2[C@@H](C=C3C4CCC5Cc6nc7c(nc6C[C@@]5(C)C4C[C@H](O)[C@]32CO)CC2CCC3C4=C[C@H]5O[C@@]6(OC(C)(CO)C[C@@H]6O)[C@H](C)[C@@]5(O)[C@]4(C)[C@@H](O)CC3[C@]2(C)C7)O[C@]12CCC(C)(C)O2` (some centres undefined), the GI50 in the assay on A549 is 0.0137 µM (active); in the assay with COLO 205, 0.0809 µM (active); with HCT-15, 0.135 µM; in the assay with HOP-92 it was 0.00815 µM (active); with K562 it was 0.0164 µM (active); in the assay on KM12, 0.057 µM (active). Further, the GI50 was 0.0182 µM (active) in the assay with M14; 0.00075 µM (active) in the assay on MCF7; 0.101 µM (active) in the assay on Malme-3M; 0.0225 µM (active) with NCI-H226; 0.488 µM (active) in the assay on OVCAR-5; 0.425 µM (active) with OVCAR-8. For the same compound, the GI50 in the assay on SK-MEL-5 is 0.0324 µM (active); with SN12C, 0.904 µM (active); with TK-10 it was 0.473 µM (active); in the assay with U-251 it was 0.0053 µM (active).

As to `N#CCCn1c(S)nnc1CCC(=O)Nc1ccc(Cl)cc1Cl`, the GI50 with A549 is 81.3 µM (inactive); in the assay on COLO 205, > 100 µM (inactive); with HCT-15, greater than 100 µM; in the assay on HOP-92, > 100 µM (inactive); in the assay with K562 it was 41.4 µM (inactive); in the assay on KM12, > 100 µM (inactive). The GI50 with M14, in the assay with Malme-3M, with NCI-H226, in the assay with OVCAR-5, in the assay with OVCAR-8 and in the assay on SK-MEL-5 was > 100 µM (inactive) each time. Also, the GI50 with SN12C, in the assay with TK-10 and with U-251 was > 100 µM (inactive) in each case.

For the compound `OCC(O)COc1c(Cl)ccc(Cl)c1Cl` (centres undefined), the GI50 is > 100 µM (inactive) in the assay on A549; > 100 µM (inactive) in the assay with COLO 205; greater than 100 µM with HCT-15; > 100 µM (inactive) with HOP-92; > 100 µM (inactive) in the assay on K562; > 100 µM (inactive) with KM12. Moreover, the GI50 in the assay on M14, with Malme-3M, in the assay with NCI-H226, in the assay on OVCAR-5, in the assay on OVCAR-8 and in the assay with SK-MEL-5 was > 100 µM (inactive) each time. Besides, the GI50 with SN12C, with TK-10 and in the assay with U-251 was > 100 µM (inactive) in each case.

Turning to `O=C1CC(c2cccc(Cl)c2)n2cccc21` (centres undefined), the GI50 is > 100 µM (inactive) in the assay with A549; > 100 µM (inactive) with COLO 205; greater than 100 µM in the assay with HCT-15; 65.3 µM (inactive) in the assay with HOP-92; 61.4 µM (inactive) in the assay on K562; 77.3 µM (inactive) with KM12. For the same compound, the GI50 in the assay with M14, with MCF7, with MDA-MB-435, with NCI-H226, with NCI/ADR-RES and with OVCAR-5 was > 100 µM (inactive) each time. In addition, the GI50 with OVCAR-8 is > 100 µM (inactive); in the assay on SN12C it was > 100 µM (inactive); in the assay on T47D, 44.2 µM (inactive); with TK-10, > 100 µM (inactive); in the assay on U-251 it was > 100 µM (inactive).

On to `Cc1ccc(-c2cc(-c3ccco3)c(C#N)c(O)n2)cc1`, for which the GI50 in the assay with A549 was > 100 µM (inactive); in the assay on COLO 205 it was > 100 µM (inactive); in the assay with HCT-15 it was greater than 100 µM; in the assay on HOP-92 it was > 100 µM (inactive); in the assay with K562, > 100 µM (inactive); with KM12 it was > 100 µM (inactive). The GI50 in the assay with M14, in the assay on Malme-3M, with NCI-H226, in the assay with OVCAR-5, in the assay with OVCAR-8 and with SK-MEL-5 was > 100 µM (inactive) throughout. In addition, the GI50 was > 100 µM (inactive) in the assay on SN12C, > 100 µM (inactive) with TK-10 and 82.8 µM (inactive) with U-251.

With `COC(=O)C(=O)C(C(=O)C=C(C)C)C(=O)C(=O)Nc1nc2ccc([N+](=O)[O-])cc2s1` (centres undefined), the GI50 is 78.7 µM (inactive) in the assay with A549; > 100 µM (inactive) in the assay with COLO 205; 50.6 µM in the assay on HCT-15; 27.3 µM (inactive) in the assay on HOP-92; 46.2 µM (inactive) in the assay on K562; 98.9 µM (inactive) in the assay on KM12. In addition, the GI50 in the assay on M14 is 52 µM (inactive); in the assay with Malme-3M it was > 100 µM (inactive); in the assay on NCI-H226, 46.1 µM (inactive); in the assay on OVCAR-5, > 100 µM (inactive); in the assay with OVCAR-8 it was > 100 µM (inactive); in the assay with SK-MEL-5 it was 35.7 µM (inactive). Further, the GI50 is 37.9 µM (inactive) in the assay with SN12C, 38.5 µM (inactive) with TK-10 and 49.8 µM (inactive) in the assay on U-251.

Turning to `CCOC(=O)c1sc2c(sc(=O)n2-c2ccccc2)c1O`, the GI50 in the assay on A549 is > 100 µM (inactive); in the assay with COLO 205, 45.3 µM (inactive); in the assay on HCT-15, greater than 100 µM; in the assay with HOP-92, > 100 µM (inactive); with K562 it was > 100 µM (inactive); with KM12, > 100 µM (inactive). For the same compound, the GI50 with M14, with Malme-3M, in the assay on NCI-H226, in the assay on OVCAR-5, in the assay on OVCAR-8 and in the assay with SK-MEL-5 was > 100 µM (inactive) each time. Besides, the GI50 in the assay on SN12C, in the assay with TK-10 and with U-251 was > 100 µM (inactive) in each case.

For the compound `CNC(=O)OCc1nc(SC2CCCCO2)n(C)c1COC(=O)NC` (centres undefined), the GI50 in the assay on A549 was > 100 µM (inactive); in the assay on COLO 205 it was > 100 µM (inactive); in the assay on HCT-15 it was greater than 100 µM; in the assay on HOP-92, > 100 µM (inactive); with K562, > 100 µM (inactive); in the assay on KM12, > 100 µM (inactive). Moreover, the GI50 in the assay with M14, in the assay with MCF7, with Malme-3M, with NCI-H226, in the assay with NCI/ADR-RES and in the assay on OVCAR-5 was > 100 µM (inactive) in each case. The GI50 in the assay on OVCAR-8, with SK-MEL-5, with SN12C and in the assay with U-251 was > 100 µM (inactive) in each case.

For the compound `OCCCNc1ccnc2cc(Cl)ccc12`, the GI50 in the assay on A549 was > 100 µM (inactive); in the assay on COLO 205 it was > 100 µM (inactive); in the assay with HCT-15 it was greater than 100 µM; with HOP-92, > 100 µM (inactive); in the assay on K562, > 100 µM (inactive); in the assay with KM12 it was > 100 µM (inactive). Further, the GI50 in the assay with M14 is > 100 µM (inactive); in the assay with Malme-3M it was > 100 µM (inactive); with NCI-H226 it was 61.9 µM (inactive); with OVCAR-5, > 100 µM (inactive); in the assay with OVCAR-8 it was > 100 µM (inactive); in the assay on SK-MEL-5, > 100 µM (inactive). Moreover, the GI50 with SN12C was > 100 µM (inactive); in the assay on TK-10, 21 µM (inactive); with U-251 it was > 100 µM (inactive).
